Article PMC9686139, “Furanoditerpenes from Spongia (Spongia) tubulifera Display Mitochondrial-Mediated Neuroprotective Effects by Targeting Cyclophilin D” (ACS Chemical Neuroscience, 2022)
Values joined by “and” are separate entries in the source; they are usually repeats but may differ in a detail not shown here. Identical values can stand only once.

Tests used:
SH-SY5Y cells [1] = assay: ROS intracellular levels, carboxy-H2DCFDA; assay type: cell-based, human
Procedure: Next, the capacity of S. tubulifera metabolites to decrease ROS intracellular levels was evaluated (Figure 4). […] Regarding the oxidative stress model, H2O2 augmented the levels of oxidant molecules up to 125.1 ± 2.4% (p < 0.01) and the known antioxidant Vit E, used as a positive control, induced a reduction in ROS release of 24% with respect to cells treated only with H2O2 (p < 0.05).
Figure 4 ROS intracellular levels after treatment with compounds. Furanoditerpenes were added for 6 h in the absence and presence of 150 μM H2O2. Then, the ROS content was measured with the fluorescent dye 5-(and-6)-carboxy-2′,7′-dichlorodihydrofluorescein diacetate (carboxy-H2DCFDA). Results from (a) 1, (b) 2, (c) 3, (d) 4, and (e) 5. Vitamin E (Vit E) at 25 μM was used as a positive control. Data expressed as the percentage of untreated control cells. Mean ± SEM of three experiments performed in triplicate. Statistical differences determined by one-way ANOVA test followed by Dunnett’s post hoc test. ^##p < 0.01 compared to control cells. *p < 0.05, **p < 0.01, and ***p < 0.01 compared to H2O2 control.
(§1) For these experiments, cells were seeded in 384-well plates and treated as described above. All of the assays were carried out as previously described.[15]
The fluorescent dye 5-(and-6)-carboxy-2′,7′-dichlorodihydrofluorescein diacetate (carboxy-H2DCFDA) was used to evaluate ROS levels. After treatment with compounds and H2O2, cells were washed twice with serum-free medium. Next, cells were loaded with 20 μM carboxy-H2DCFDA dissolved in serum-free medium, and the plate was incubated for 1 h at 37 °C and 300 rpm. Then, 100 μL of PBS were added to each well for 30 min at 37 °C and 300 rpm. After this incubation, the fluorescence was read at […].

SH-SY5Y cells [2] = assay: GSH content, Thiol Tracker Violet; assay type: cell-based, human; conditions: for GSH content: 150 μM H2O2, 6 h, % of untreated control cells
Procedure: To confirm the antioxidant properties of S. tubulifera compounds, the levels of the most important nonenzymatic antioxidant of cells, glutathione (GSH), were assessed. […] Regarding diterpene 2, an increase in the nonenzymatic antioxidant was observed when cells were cotreated with H2O2 and this compound at 0.001 and 1 μM (p < 0.05) (Figure 5b). No effects were found after the addition of 3 (Figure 5c), but 4 and 5 presented interesting results (Figure 5d,e).
Figure 5 Effect of S. tubulifera metabolites in the GSH content of human neuroblastoma cells. SH-SY5Y cells were treated with compounds for 6 h with and without 150 μM H2O2. GSH levels were monitored with Thiol Tracker Violet dye. (a) Compound 1, (b) compound 2, (c) compound 3, (d) compound 4, and (e) compound 5 results. Vitamin E (Vit E) at 25 μM was used as a positive control. Mean ± SEM of three experiments performed in triplicate. Data presented as the percentage of untreated control cells and compared by one-way ANOVA and Dunnett’s tests. ^##p < 0.01 compared to control cells. *p < 0.05 compared to cells treated with H2O2 alone.
as §1
Thiol Tracker Violet was used to measure intracellular GSH levels, following the manufacturer’s instructions. Briefly, human neuroblastoma cells were rinsed twice with PBS and the fluorescence dye at 10 μM was added. The plate was incubated for 30 min at 37 °C and 300 rpm, and the fluorescence was measured at 404 nm excitation and 526 nm emission in a plate reader. All experiments were performed three independent times in triplicate.

ERK = ERK activation (phosphorylated/total) by Western blot; assay type: cell-based, human
Source text: Considering that CypD has several upstream regulators, which are also considered mPTP modulators,[10] the study was continued by evaluating if S. tubulifera metabolites were affecting the activation of two kinases involved in the control of mPTP by CypD, ERK, and GSK3β (Figure 7). Regarding ERK, its activation has been related to the inhibition of CypD-mediated mPTP opening. Therefore, the phosphorylated state of residues implicated in ERK activation (Thr202, Tyr204, Thr185, and Tyr187) was determined, as well as its total levels. Any of the compounds were able to activate ERK under neither physiological nor oxidative conditions (Figure 7a,b). However, 3 inhibited the kinase in both situations, with levels of 78.6 ± 4.8% (p < 0.05) and 67.3 ± 9.4% (p < 0.01), respectively. […] On the other hand, GSK3β inhibition results in a reduction in mPTP opening since the kinase binds to CypD, decreasing its interaction with mPTP components.[10] In the case of GSK3β, Ser9 phosphorylation was determined, a residue implicated in kinase inhibition (Figure 7c,d).
Figure 7 Analysis of compound effects on CypD upstream regulators. SH-SY5Y cells were treated with 1–5 at 0.001 μM for 6 h, and their effects on kinase activation were evaluated. […] Kinase expression was calculated as the ratio between phosphorylated and total levels. […] Data expressed as the percentage of untreated control cells and H2O2 control. […]

CypD = CypD expression by Western blot
Source text: (b) CypD expression after treatment with S. tubulifera metabolites. (c) Effect of compounds on the CypD expression under oxidative stress conditions. […] Protein band expression was normalized by actin levels. Results are mean ± SEM of three replicates carried out in duplicate. Data expressed as the percentage of untreated control cells and H2O2 control. Values compared by one-way ANOVA and Dunnett’s tests. ^#p < 0.05 and ^##p < 0.01 compared to control cells. *p < 0.05 and **p < 0.01 compared to cells treated with H2O2 alone.
In this context, the expression of this protein was analyzed after treatment with compounds. CypD cytosolic levels were evaluated after treatment with 1–5 alone for 6 h and after the coaddition of diterpenes and H2O2 to get a complete insight into diterpene mitochondria-related effects.
SH-SY5Y cells were cultured in 12-well plates at 1 × 10^6 cells per well and allowed to settle down for 24 h.
Cells were washed twice with ice-cold PBS, and a hypotonic solution was added (20 mM tris–HCl pH 7.4, 10 mM NaCl, and 3 mM MgCl2, containing phosphatase and protease inhibitor cocktail). Cells were incubated for 15 min on ice and centrifuged at 3000 rpm and 4 °C for 15 min. The supernatant was collected as the cytosolic fraction, and protein concentration was quantified with the Direct Detect instrument (Merck Millipore, Darmstadt, Germany).[15]
Electrophoresis was resolved in 4–20% sodium dodecyl sulfate polyacrylamide gels (Biorad, Hercules, CA), containing 15 μg of cytosolic protein from each sample. The Trans-Blot semidry transfer cell (Biorad) was used to transfer proteins to poly(vinylidene difluoride) (PVDF) membranes (Merck Millipore). Snap i.d. system (Merck Millipore) was used for membrane blocking and antibody incubation. […] Immunoreactive bands were detected with Supersignal West Pico Luminiscent Substrate and Supersignal West Femto Maximum Sensitivity Substrate. Diversity GeneSnap system and software (Syngene, Cambridge, U.K.) were used for protein band detection. Experiments were performed three independent times in duplicate.

human CypD = human CypD (Homo sapiens, UniProt P30405); assay: Surface plasmon resonance binding to immobilized CypD; conditions: for kon: read-out: ka, CypD
Procedure: With this objective, surface plasmon resonance (SPR) experiments were performed. CypD was immobilized in the sensor surface as a ligand, and 1–5 were injected as analytes. […] For immobilization, amine groups were activated with 1-ethyl-3-(3-dimethylaminopropyl)carbodiimide hydrochloride (EDC) and N-hydroxysuccinimide (NHS) and 50 μg/mL of human CypD dissolved in 5 mM sodium acetate (pH 4.5) was added. […] All of the assays were carried out with phosphate-buffered saline (PBS)—0.05% Tween (pH 7.2) as the running buffer, with a flow rate of 20 μL/min at 24 °C.
The left panels present association curves obtained by the addition of compounds over immobilized CypD and subtraction of their respective solvent control. The right panels show fitting curves for equilibrium binding. Representative graphs of one independent replicate. […] All injections were performed using PBS, 0.05% Tween (pH 7.2) as the running buffer. Kinetic equilibrium dissociation constants (KD) and fitting curves were obtained with TraceDrawer software.
(§2) SPR measurements were performed using the MP-SPR Navi 210A VASA instrument with SPR Navi Control software (BioNavis, Tampere, Finland). All of the analyses were carried out in three-dimensional (3D) carboxymethyl dextran hydrogel-coated (CMD-3DM) sensors (BioNavis). PBS, 0.05% Tween (pH 7.2) was used as the running buffer for sensor activation, protein immobilization, and analyte injection. All buffers were degassed and filtered by 0.22 μm before use. The flow rate and temperature were set at 20 μL/min and 24 °C, respectively. A commercial Amine Coupling Kit (Xantec bioanalytics GmbH, Düsseldorf, Germany) was used for sensor activation and Cyps immobilization. The chip surface was preconditioned with 2 M NaCl and 0.01 M NaOH. Then, the surface was activated by the addition of 0.2 M 1-ethyl-3-(3-dimethylaminopropyl)carbodiimide hydrochloride (EDC) and 0.05 M N-hydroxysuccinimide (NHS). After activation, 50 μg/mL of CypA or CypD dissolved in 5 mM sodium acetate buffer (pH 4.5) were injected for immobilization on the sensor surface. […] Compound injections were performed in serial mode, and the reference channel signal was subtracted from the analyte sensorgram. Data were processed with MP-SPR Navi Data Viewer (BioNavis), and KD values were obtained using the 1:1 Langmuir model with mass transport considerations of TraceDrawer software (RidgeView Instruments Ab, Uppsala, Sweden). All of the experiments were performed three independent times.

Human CypA = Human CypA (Homo sapiens, UniProt P62937); assay: Surface plasmon resonance binding to immobilized CypA; conditions: for Kd: CypA, SPR, 1:1 Langmuir model, PBS-T pH 7.2, 24 °C; for kon: read-out: ka, CypA
Procedure: The protein was immobilized on the sensor surface by amino coupling, as described above (Figure S7), and compounds at several concentrations were added. The same conditions set for CypD were used for CypA experiments, with a flow rate of 20 μL/min and PBS-T (pH 7.2) as the running buffer.
Figure 9 Binding of compounds to CypA measured by surface plasmon resonance. The left panels present association curves obtained by the addition of compounds over immobilized CypA and subtraction of their respective vehicle signal. The right panels show fitting curves for equilibrium binding. Representative graphs of one independent replicate. […] Kinetic equilibrium dissociation constants (KD) and fitting curves were obtained with TraceDrawer software.
as §2

[3] = system: mitochondrial permeability transition pore (mPTP); conditions: 0.25 h, 0.001 µM
Procedure: (§3) SH-SY5Y cells were treated for 15 min with 1–5, and 1 mM tert-butyl hydroperoxide (TBHP) was used to open the pore. Cells were loaded with calcein-AM, which accumulates in cytosol and cell compartments and with CoCl2 that quenches cytosolic fluorescence but not the mitochondrial signal.[17] Then, fluorescence was analyzed by flow cytometry (Figure 6a). […] (a) Analysis of mPTP opening. Cells were treated with compounds at 0.001 μM for 15 min, and pore opening was induced with 1 mM TBHP. Calcein-AM and CoCl2 were used to measure mPTP aperture by flow cytometry. […] Values are presented as the percentage of control cells. Data are mean ± SEM of three independent experiments. Statistical differences determined by one-way ANOVA and Dunnett’s tests. ^###p < 0.001 compared to control cells. *p < 0.05 and **p < 0.01 compared to cells treated only with TBHP.
(§4) The inhibition of mPTP by compounds was determined with the MitoProbe Transition Pore Assay Kit, as previously described.[21] For this assay, cells were seeded in 12-well plates at 5 × 10^5 cells per well and allowed to grow for 24 h. Then, SH-SY5Y cells were detached with Detachin solution (Genlatis, San Diego), washed with PBS, and resuspended in PBS buffer with 0.6 mM CaCl2. Cells were loaded with 0.01 μM calcein-AM and incubated at 37 °C for 15 min. Then, 0.4 mM CoCl2 and compounds at 0.001 μM were added and cells were incubated for 15 min at 37 °C. After this incubation, cells were centrifuged, resuspended in 100 μL of calcium-free PBS, and kept on ice. Finally, TBHP at 1 mM was added for 3 min to the cells to induce the pore opening. […] The fluorescence of 10 000 events was analyzed with IDEAS Application vs 6.0 (Amnis Corporation, Luminex Corp).

[4] = system: mitochondrial permeability transition pore (mPTP); assay: mPTP opening, calcein-AM/CoCl2 flow cytometry; conditions: 0.001 μM, 15 min pretreatment, TBHP 3 min
Procedure: as §3, §4

Sequence of Human CypA (P62937 whole entry): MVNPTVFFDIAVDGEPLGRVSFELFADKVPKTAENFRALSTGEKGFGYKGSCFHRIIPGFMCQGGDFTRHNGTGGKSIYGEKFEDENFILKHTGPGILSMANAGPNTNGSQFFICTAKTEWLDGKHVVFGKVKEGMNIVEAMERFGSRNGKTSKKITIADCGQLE
Sequence of human CypD (P30405 30-207): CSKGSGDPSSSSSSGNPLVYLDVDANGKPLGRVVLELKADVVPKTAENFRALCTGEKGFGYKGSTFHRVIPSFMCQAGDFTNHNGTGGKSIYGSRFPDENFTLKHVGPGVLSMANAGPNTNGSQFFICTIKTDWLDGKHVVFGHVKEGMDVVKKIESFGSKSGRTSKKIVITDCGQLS

Molecule | effect on ROS content (SH-SY5Y cells [1]; cotreatment with 150 μM H2O2, 6 h, all four concentrations 0.001-1 μM) | effect on GSH content (SH-SY5Y cells [2]; compound alone and with 150 μM H2O2, 6 h) | ERK activation (phosphorylated/total) (ERK; compound 0.001 μM + 150 μM H2O2, 6 h, % of H2O2 control) [%] | ERK activation (phosphorylated/total) (ERK; compound alone 0.001 μM, 6 h, % of untreated control cells) [%] | effect on CypD expression (CypD; 0.001 μM) | Kd (human CypD) [µM] | kon (human CypD) [M⁻¹ s⁻¹] | Kd (Human CypA) | kon (Human CypA) [M⁻¹ s⁻¹] | GSH content (SH-SY5Y cells [2]; compound 0.001 μM) [%] | GSH content (SH-SY5Y cells [2]; compound 0.1 μM) [%] | calcein fluorescence (mPTP opening) [3] [%] | CypD expression under oxidative damage (CypD; compound 0.001 μM + 150 μM H2O2, 6 h, % of H2O2 control cells) | inhibition of mPTP opening after oxidative injury [4] | selectivity between CypD and CypA (KD values) (human CypD; SPR, CypD versus CypA) | maximum SPR signal, CypA (Human CypA) [mdeg] | reduction in ROS release with respect to cells treated only with H2O2 (SH-SY5Y cells [1]; Vit E 25 μM, 150 μM H2O2, 6 h) [%]
CC1=C(O)C(=O)C[C@]2(C)[C@H]3CCc4cocc4[C@]3(C)CC[C@@H]12 [Compound 3] | diminished ROS levels | No effects | 67.3 ± 9.4 | 78.6 ± 4.8 | did not affect CypD expression | 7 ± 0.04 | 3750 | 6.39 µM and 6.4 µM | 3190 |  |  |  |  |  |  |  | 
C[C@]12C=C(O)C(=O)[C@](C)(CO)[C@@H]1CC[C@@]1(C)c3cocc3CC[C@H]21 [Compound 5, spongian diterpene 17] |  |  |  |  |  | 2.97 ± 0.01 | 10000 | 4.34 µM and 4.3 µM | 3590 | 110.9 ± 10.0 | 118.9 ± 12.0 | 90.3 ± 5.3 | about 54% | able to inhibit mPTP opening | selectivity toward the mitochondrial isoform | 13.6 | 
Vitamin E [Vit E, reference compound] |  |  |  |  |  |  |  |  |  |  |  |  |  |  |  |  | 24
